This passage reports inhibition and EC50 results from patent US12421205B2, “GLP-1 receptor agonist” (HYUNDAI PHARM CO., LTD., priority 2019, dated 2025).

The target in one series is T1, hERG (Homo sapiens, UniProt Q12809).
T1 construct: purchased Invitrogen PV5365
Briefly: hERG inhibition test (Predictor hERG Fluorescence Polarization assay kit). The series is classed as binding. The following applies: probe kit Tracer (fluorescent hERG ligand), hERG % inhibition at 10 uM, relative to E-4031 and solvent control. The procedure, abridged: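 Competitive fluorescence-polarization binding of fluorescent tracer to hERG membrane preparation, 2.5 h at room temperature, mP read at 531/579 nm. % inhibition at 10 uM test compound, scaled between solvent control (0%) and E-4031 (100%).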

The target of a further series is T2, human GLP-1 receptor (Homo sapiens, UniProt P43220).
T2 construct: host or cells: CHO-K1
T2 sequence (P43220 24-463): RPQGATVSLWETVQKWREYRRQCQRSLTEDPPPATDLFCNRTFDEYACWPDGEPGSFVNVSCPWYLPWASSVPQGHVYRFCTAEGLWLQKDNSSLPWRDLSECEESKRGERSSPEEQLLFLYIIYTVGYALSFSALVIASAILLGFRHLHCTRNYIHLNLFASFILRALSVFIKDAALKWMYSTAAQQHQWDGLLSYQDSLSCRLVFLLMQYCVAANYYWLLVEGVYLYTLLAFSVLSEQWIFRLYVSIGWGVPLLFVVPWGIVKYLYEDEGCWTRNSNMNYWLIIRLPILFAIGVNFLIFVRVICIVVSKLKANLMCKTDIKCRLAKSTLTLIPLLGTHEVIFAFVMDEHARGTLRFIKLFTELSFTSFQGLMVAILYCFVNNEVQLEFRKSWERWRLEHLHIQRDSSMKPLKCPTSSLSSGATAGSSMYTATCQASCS
Briefly: cAMP activity test (cAMP dynamic HTRF kit) in CHO-K1/GLP-1 receptor-expressing cells. The series is classed as cell-based. The following applies: cAMP activity, CHO-K1/GLP-1 receptor-expressing cells; read-out: EC50. The procedure, abridged:
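Cells in HBSS with 0.1% BSA, 0.5 mM IBMX and 5 mM HEPES, then lysed; cAMP-d2 and anti-cAMP cryptate added for 3 h. HTRF read-out, where FRET signal is inversely proportional to intracellular cAMP.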

T1 sequence (Q12809 whole entry): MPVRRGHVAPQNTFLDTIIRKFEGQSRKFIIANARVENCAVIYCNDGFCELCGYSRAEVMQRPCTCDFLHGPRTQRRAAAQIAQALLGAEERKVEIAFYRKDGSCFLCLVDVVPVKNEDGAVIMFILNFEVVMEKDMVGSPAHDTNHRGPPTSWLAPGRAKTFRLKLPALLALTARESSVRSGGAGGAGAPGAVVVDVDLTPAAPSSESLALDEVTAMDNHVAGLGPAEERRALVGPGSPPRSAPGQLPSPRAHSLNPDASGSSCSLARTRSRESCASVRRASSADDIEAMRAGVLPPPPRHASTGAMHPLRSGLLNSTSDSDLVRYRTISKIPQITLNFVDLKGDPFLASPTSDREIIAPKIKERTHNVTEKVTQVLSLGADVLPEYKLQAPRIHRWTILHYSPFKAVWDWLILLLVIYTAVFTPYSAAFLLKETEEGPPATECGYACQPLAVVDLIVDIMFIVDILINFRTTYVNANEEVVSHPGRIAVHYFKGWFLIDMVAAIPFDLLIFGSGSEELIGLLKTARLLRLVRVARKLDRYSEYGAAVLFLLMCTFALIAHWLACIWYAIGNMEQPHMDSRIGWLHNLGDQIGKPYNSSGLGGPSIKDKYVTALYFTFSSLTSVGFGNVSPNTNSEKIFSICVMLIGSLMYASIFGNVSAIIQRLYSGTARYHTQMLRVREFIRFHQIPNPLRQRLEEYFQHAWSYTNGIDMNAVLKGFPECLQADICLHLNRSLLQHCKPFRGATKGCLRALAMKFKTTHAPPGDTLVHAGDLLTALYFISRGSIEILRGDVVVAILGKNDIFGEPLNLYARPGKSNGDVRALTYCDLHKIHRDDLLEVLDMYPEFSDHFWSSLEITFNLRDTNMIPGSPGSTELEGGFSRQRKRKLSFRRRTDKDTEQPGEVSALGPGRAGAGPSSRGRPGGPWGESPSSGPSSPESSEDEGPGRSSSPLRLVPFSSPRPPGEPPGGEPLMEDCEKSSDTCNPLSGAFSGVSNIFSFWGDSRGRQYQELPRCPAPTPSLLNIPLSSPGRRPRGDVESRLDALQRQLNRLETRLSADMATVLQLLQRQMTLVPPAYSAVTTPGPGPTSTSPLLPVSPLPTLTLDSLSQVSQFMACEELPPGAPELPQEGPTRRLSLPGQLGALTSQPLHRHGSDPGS

On to `N#Cc1ccc(COc2cccc(-c3ccc(Cc4nc5ccc(C(=O)O)cc5n4Cc4ccco4)c(F)c3)c2)c(F)c1` [Example 28, 2-((3′-(4-cyano-2-fluorobenzyloxy)-3-fluorobiphenyl-4-yl)methyl)-1-(furan-2-ylmethyl)-1H-benzo[d]imidazole-6-carboxylic acid], for which, on hERG, the inhibition at 2.5 h, 10 µM is 0.52%. At human GLP-1 receptor, the EC50 came to 130 nM.

`O=C(O)c1ccc2nc(Cc3ccc(-c4cccc(OCc5ccc(Cl)cc5F)n4)c(F)c3)n(Cc3cnco3)c2c1` [Example 35, 2-(4-(6-(4-chloro-2-fluorobenzyloxy)pyridin-2-yl)-3-fluorobenzyl)-1-(oxazol-5-ylmethyl)-1H-benzo[d]imidazole-6-carboxylic acid]: at hERG, the inhibition at 2.5 h, 10 µM is -3.82%. The EC50 at human GLP-1 receptor amounted to 9 nM.

`N#Cc1ccc(COc2cccc(-c3ccc(Cc4nc5ccc(C(=O)O)cc5n4C[C@H]4CCCO4)cc3F)c2)c(F)c1` [Example 47, (R)-2-((3′-(4-cyano-2-fluorobenzyloxy)-2-fluorobiphenyl-4-yl)methyl)-1-((tetrahydrofuran-2-yl)methyl)-1H-benzo[d]imidazole-6-carboxylic acid]: the inhibition at 2.5 h, 10 µM at hERG is -17.1%. Moreover, at human GLP-1 receptor, the EC50 is 1300 nM.

As for `O=C(O)c1ccc2nc(Cc3ccc(-c4cccc(OCc5ccc(Cl)cc5F)n4)c(F)c3)n(CC3CCCO3)c2c1` (centres unmarked) [Example 11, 2-(4-(6-(4-chloro-2-fluorobenzyloxy)pyridin-2-yl)-3-fluorobenzyl)-1-((tetrahydrofuran-2-yl)methyl)-1H-benzo[d]imidazole-6-carboxylic acid], the inhibition at 2.5 h, 10 µM on hERG was -1.31%. Also, the EC50 on human GLP-1 receptor turned out to be 6.5 nM.

For the compound `COCCn1c(Cc2ccc(-c3cccc(OCc4ccc(Cl)cc4F)n3)cc2C)nc2ccc(C(=O)O)cc21` [Example 53, 2-(4-(6-(4-chloro-2-fluorobenzyloxy)pyridin-2-yl)-2-methylbenzyl)-1-(2-methoxyethyl)-1H-benzo[d]imidazole-6-carboxylic acid], the inhibition at 2.5 h, 10 µM on hERG was 18.7%. Further, the EC50 at human GLP-1 receptor was 39 nM.

Regarding `O=C(O)c1ccc2nc(Cc3ccc(-c4cccc(OCc5cccnc5)n4)c(F)c3)n(C[C@@H]3CCO3)c2c1` [Example 129, (S)-2-(3-fluoro-4-(6-(pyridin-3-ylmethoxy)pyridin-2-yl)benzyl)-1-(oxetan-2-ylmethyl)-1H-benzo[d]imidazole-6-carboxylic acid], the inhibition at 2.5 h, 10 µM at hERG was -6.27%. Besides, on human GLP-1 receptor, the EC50 stood at 490 nM.

As to `O=C(O)c1ccc2nc(Cc3ccc(-c4cccc(OCc5ccc(Cl)c(F)c5)n4)c(F)c3)n(CC3CCCO3)c2c1` (centres unmarked) [Example 99, 2-(4-(6-(4-chloro-3-fluorobenzyloxy)pyridin-2-yl)-3-fluorobenzyl)-1-((tetrahydrofuran-2-yl)methyl)-1H-benzo[d]imidazole-6-carboxylic acid], the inhibition at 2.5 h, 10 µM at hERG was -0.33%. For the same compound, the EC50 at human GLP-1 receptor was 70 nM.

Consider `O=C(O)c1ccc2nc(Cc3ccc(-c4cccc(OCc5ccc(Cl)cc5F)n4)cc3F)n(Cc3ccco3)c2c1` [Example 13, 2-(4-(6-(4-chloro-2-fluorobenzyloxy)pyridin-2-yl)-2-fluorobenzyl)-1-(furan-2-ylmethyl)-1H-benzo[d]imidazole-6-carboxylic acid], for which the inhibition at 2.5 h, 10 µM on hERG was -7.76%. Also, on human GLP-1 receptor, the EC50 turned out to be 35 nM.

As for `O=C(O)c1ccc2nc(Cc3ccc(-c4cccc(OCc5ccc(Br)cc5F)n4)cc3F)n(CC3CCCO3)c2c1` (centres unmarked) [Example 89, 2-(4-(6-(4-bromo-2-fluorobenzyloxy)pyridin-2-yl)-2-fluorobenzyl)-1-((tetrahydrofuran-2-yl)methyl)-1H-benzo[d]imidazole-6-carboxylic acid], the inhibition at 2.5 h, 10 µM at hERG is 22.1%. The EC50 on human GLP-1 receptor stood at 11 nM.

For `O=C(O)c1ccc2nc(Cc3ccc(-c4cccc(OCc5ccc(Cl)cc5F)n4)c(F)c3F)n(C[C@@H]3CCO3)c2c1` [Example 82, (S)-2-(4-(6-(4-chloro-2-fluorobenzyloxy)pyridin-2-yl)-2,3-difluorobenzyl)-1-(oxetan-2-ylmethyl)-1H-benzo[d]imidazole-6-carboxylic acid], at hERG, the inhibition at 2.5 h, 10 µM is 7.24%. At human GLP-1 receptor, the EC50 stood at 4 nM.

`O=C(O)c1ccc2nc(Cn3ccc(-c4cccc(OCc5ccc(Cl)cc5F)n4)cc3=O)n(C[C@@H]3CCO3)c2c1` [Example 110, (S)-2-((6-((4-chloro-2-fluorobenzyl)oxy)-2′-oxo-[2,4′-bipyridin]-1′(2′H)-yl)methyl)-1-(oxetan-2-ylmethyl)-1H-benzo[d]imidazole-6-carboxylic acid]: the inhibition at 2.5 h, 10 µM on hERG is 7.61%. Besides, the EC50 on human GLP-1 receptor came out at 16 nM.

Regarding `Cc1cc(Cc2nc3ccc(C(=O)O)cc3n2Cc2ccco2)ccc1-c1cccc(OCc2ccc(C#N)cc2F)c1` [Example 29, 2-((3′-(4-cyano-2-fluorobenzyloxy)-2-methylbiphenyl-4-yl)methyl)-1-(furan-2-ylmethyl)-1H-benzo[d]imidazole-6-carboxylic acid], the inhibition at 2.5 h, 10 µM on hERG is -0.75%. In addition, the EC50 on human GLP-1 receptor came to 900 nM.

As for `O=C(O)c1ccc2nc(Cc3ccc(-c4cccc(OCc5nc6ccccc6s5)n4)c(F)c3)n(C[C@@H]3CCO3)c2c1` [Example 132, (S)-2-(4-(6-(benzo[d]thiazol-2-ylmethoxy)pyridin-2-yl)-3-fluorobenzyl)-1-(oxetan-2-ylmethyl)-1H-benzo[d]imidazole-6-carboxylic acid], the inhibition at 2.5 h, 10 µM on hERG was -7.11%. Moreover, at human GLP-1 receptor, the EC50 came to 460 nM.

In the case of `O=C(O)c1ccc2nc(Cc3ccc(-c4cccc(COc5ccc(Cl)cc5F)n4)cc3F)n(C[C@H]3CCCO3)c2c1` [Example 45, (R)-2-(4-(6-((4-chloro-2-fluorophenoxy)methyl)pyridin-2-yl)-2-fluorobenzyl)-1-((tetrahydrofuran-2-yl)methyl)-1H-benzo[d]imidazole-6-carboxylic acid], the inhibition at 2.5 h, 10 µM at hERG is 27.7%. Moreover, the EC50 at human GLP-1 receptor was 3700 nM.

Turning to `COCCn1c(Cn2ccc(-c3cccc(OCc4ccc(C#N)cc4F)c3)cc2=O)nc2ccc(C(=O)O)cc21` [Example 104, 2-((4-(3-(4-cyano-2-fluorobenzyloxy)phenyl)-2-oxopyridin-1(2H)-yl)methyl)-1-(2-methoxyethyl)-1H-benzo[d]imidazole-6-carboxylic acid], the inhibition at 2.5 h, 10 µM on hERG is 8.69%. Also, the EC50 on human GLP-1 receptor is 240 nM.

For the compound `N#Cc1ccc(COc2cccc(-c3ccc(Cc4nc5ccc(C(=O)O)cc5n4CC4CCCO4)c(F)c3)n2)cc1` (centres unmarked) [Example 87, 2-(4-(6-(4-cyanobenzyloxy)pyridin-2-yl)-2-fluorobenzyl)-1-((tetrahydrofuran-2-yl)methyl)-1H-benzo[d]imidazole-6-carboxylic acid], the inhibition at 2.5 h, 10 µM at hERG is 32.9%. In addition, the EC50 at human GLP-1 receptor was determined as 18 nM.

As for `O=C(O)c1ccc2nc(Cc3ccc(-c4cccc(OCc5ccc(Cl)cc5F)n4)cc3)n(CC3CCCO3)c2c1` (centres unmarked) [Example 10, 2-(4-(6-(4-chloro-2-fluorobenzyloxy)pyridin-2-yl)benzyl)-1-((tetrahydrofuran-2-yl)methyl)-1H-benzo[d]imidazole-6-carboxylic acid], the inhibition at 2.5 h, 10 µM on hERG was -7.54%. Besides, on human GLP-1 receptor, the EC50 amounted to 24 nM.

In the case of `O=C(O)c1ccc2nc(Cc3ccc(-c4ccc(F)c(OCc5ccc(Cl)cc5F)c4)cc3F)n(CC3CCCO3)c2c1` (centres unmarked) [Example 95, 2-((3′-(4-chloro-2-fluorobenzyloxy)-3,4′-difluorobiphenyl-4-yl)methyl)-1-((tetrahydrofuran-2-yl)methyl)-1H-benzo[d]imidazole-6-carboxylic acid], the inhibition at 2.5 h, 10 µM on hERG is -38.2%. The EC50 at human GLP-1 receptor amounted to 100 nM.

Consider `O=C(O)c1ccc2nc(Cc3cc(F)c(-c4cccc(OCc5ccc(Cl)cc5F)n4)cc3F)n(C[C@@H]3CCO3)c2c1` [Example 86, (S)-2-(4-(6-(4-chloro-2-fluorobenzyloxy)pyridin-2-yl)-2,5-difluorobenzyl)-1-(oxetan-2-ylmethyl)-1H-benzo[d]imidazole-6-carboxylic acid], for which the inhibition at 2.5 h, 10 µM at hERG is 8.93%. For the same compound, the 50% effective concentration (EC50) at human GLP-1 receptor is < 3.2 nM.

In general, inhibition refers to the drop in the measured response relative to a control, in per cent. A word on the EC50: it is the concentration needed to bring the measured effect to its halfway point.
